Results as given in patent US20140349945A1, “PEG-AMINO ACID-OLIGOPEPTIDE-IRINOTECAN DRUG CONJUGATES AND THE PHARMACEUTICAL COMPOSITIONS” (JENKEM TECHNOLOGY CO., LTD. (BEIJING), priority 2011, published 2014).
Marks after values point to notes of the source that are not given here.

Experiments:
[1] = tested on: human colon cancer cells HCT-116; test: Inhibitory effect on transplanted tumors of human colon cancer cells HCT-116 in nude mice; settings: for Weight At the beginning / Weight At lats: HCT-116 tumor-bearing nude mice; for Weight At the beginning: baseline; for Weight At lats: end of experiment
Text: BALB/cA nude mice (male, 4-6 weeks old, weighed 19±2 g) were provided by the Shanghai Institute of Materia Medica, Chinese Academy of Sciences. […] Animal numbers of each group: 12 mice in negative control group and 6 mice in treatment group.
5×10^6 cells were subcutaneously inoculated in the right armpit of each nude mouse. The transplanted tumors were transferred in nude mice for two generations before utilization.
(§1) Vigorous tumor tissues were cut into pieces of about 1.5 mm3 and then subcutaneously inoculated to the right armpit nude mice under sterile conditions. The diameters of the subcutaneous transplanted tumors were measured using a vernier caliper. The animals were randomly grouped when the tumors grew to 100-200 mm3.
(§2) After the administration, the animals were observed consecutively for one week. During the whole experiment, diameters of the transplanted tumors were measured and the animals were weighed two times a week. The tumor volume (TV) was calculated as follows: TV=½×a×b^2, wherein, a and b represented length and width respectively. According to the results of measurements, the relative tumor volumes (RTV) were calculated as follows: RTV=Vt/V0. Wherein, V0 were the volumes measured at administration after caging (i.e. d0), Vt were the tumor volumes of every measurements.

[2] = tested on: human colon cancer cells HT-29; test: Inhibitory effect on transplanted tumors of human colon cancer cells HT-29 in nude mice; settings: for Weight At the beginning / Weight At lats: HT-29 tumor-bearing nude mice; for Weight At the beginning: baseline; for Weight At lats: end of experiment
Text: (§3) BALB/cA nude mice (male, 5-6 weeks old, weighed 18±2 g) were provided by the Shanghai Institute of Materia Medica, Chinese Academy of Sciences. […] Animal numbers of each group: 12 mice in negative control group and 6 mice in treatment group.
Human colon tumor cell strains HT-29 were purchased from ATCC. 5×10^6 cells were subcutaneously inoculated in the right armpit of each nude mouse. The transplanted tumors were transferred in nude mice for two generations before utilization.
Vigorous tumor tissues were cut into pieces of about 1.5 mm^3 and then subcutaneously inoculated to the right armpit nude mice under sterile conditions. The diameters of the subcutaneous transplanted tumors were measured using a vernier caliper. The animals were randomly grouped when the tumors grew to 100-200 mm^3.
as §2

[3] = tested on: human lung cancer cells A549; test: Inhibitory effect on transplanted tumors of human lung cancer cells A549 in nude mice; settings: for Weight At the beginning: A549 tumor-bearing nude mice, baseline
Text: as §3
Human lung tumor cell strains A549 were purchased from ATCC. 5×10^6 cells were subcutaneously inoculated in the right armpit of each nude mouse. The transplanted tumors were transferred in nude mice for two generations before utilization.
as §1, §2

[4] = tested on: human ovarian cancer cells SKOV-3; test: Inhibitory effect on transplanted tumor of human ovarian cancer cells SKOV-3 in nude mice; settings: for TV (mean ± SD) d 28 / number of animals with tumor regression: d 28; for number of animals with tumor regression: 6 mice per group; for Weight At the beginning / Weight At lats: SKOV-3 tumor-bearing nude mice; for Weight At the beginning: baseline; for Weight At lats: end of experiment
Text: as §3
Human […] tumor cell strains SKOV-3 were purchased from ATCC. 5×10^6 cells were subcutaneously inoculated in the right armpit of each nude mouse. The transplanted tumors were transferred in nude mice for two generations before utilization.
as §1, §2

[5] = tested on: human colon cancer cells SW-620; test: Inhibitory effect on transplanted tumor of human colon cancer cells SW-620 in nude mice; settings: for RTV mean ± SD) / TV (mean ± SD) d 28 / number of animals with tumor regression: SW-620, d 28; for number of animals with tumor regression: 6 mice per group; for Weight At the beginning / Weight At last: SW-620 tumor-bearing nude mice; for Weight At the beginning: baseline; for Weight At last: end of experiment
Text: as §3
Human […] tumor cell strains SW-620 were purchased from ATCC. 5×10^6 cells were subcutaneously inoculated in the right armpit of each nude mouse. The transplanted tumors were transferred in nude mice for two generations before utilization.
as §2, with “Vigorous tumor tissues were cut into pieces of about 1.5 mm3 and then subcutaneously inoculated to the right armpit nude mice under sterile conditions. The diameters of the subcutaneous transplanted tumors were measured using a vernier caliper. The animals were randomly grouped when the tumors grew to 100-200 mm3. […] After” for “After”

Q: Which “TV (mean ± SD) d 28” value ([1]; 15 mg/kg, iv q3w × 3w, HCT-116) does the source give for `CCc1c2c(nc3ccc(OC(=O)N4CCC(N5CCCCC5)CC4)cc13)-c1cc3c(c(=O)n1C2)COC(=O)[C@]3(O)CC` [CPT-11, Irinotecan] here?
A: 322 ± 37 mm^3

Q: And the “Weight At the beginning” value ([1]; 15 mg/kg, iv q3w × 3w)?
A: 19.1 g

Q: And the “Weight At lats” value ([1]; 15 mg/kg, iv q3w × 3w)?
A: 16.6 g

Q: And the “body weight change during the whole experiment (in words)” value ([1]; 45 mg/kg group, compared with solvent control group, HCT-116)?
A: slightly higher weight loss

Q: And the “TV (mean ± SD) d 28” value ([1]; 45 mg/kg, iv qw × 3w, HCT-116)?
A: 512 ± 99 mm^3

Q: And the “Weight At the beginning” value ([1]; 45 mg/kg, iv qw × 3w)?
A: 19.2 g

Q: What about the “Weight At lats” value ([1]; 45 mg/kg, iv qw × 3w) of the same compound?
A: 15.1 g

Q: What about the “Weight At the beginning” value ([2]; 15 mg/kg, iv q3w × 3w) of the same compound?
A: 18.2 g

Q: And the “Weight At lats” value ([2]; 15 mg/kg, iv q3w × 3w)?
A: 16.0 g

Q: What about the “Weight At the beginning” value ([2]; 45 mg/kg, iv qw × 3w) of the same compound?
A: 18.6 g

Q: What about the “Weight At lats” value ([2]; 45 mg/kg, iv qw × 3w) of the same compound?
A: 16.2 g

Q: What about the “body weight change during the whole experiment (in words)” value ([2]; two groups treated with different doses (15 and 45 mg/kg), HT-29) of the same compound?
A: underwent weight loss

Q: And the “TV (mean ± SD) d 28” value ([3]; 15 mg/kg, iv q3w × 3w, A549, d 28)?
A: 831 ± 305 mm^3

Q: And the “Weight At the beginning” value ([3]; 15 mg/kg, iv q3w × 3w)?
A: 18.1 g

Q: And the “RTV mean ± SD)” value ([3]; 45 mg/kg, iv qw × 3w, A549, d 28)?
A: 9.87 ± 4.87 ^

Q: What about the “Weight At the beginning” value ([3]; 45 mg/kg, iv qw × 3w) of the same compound?
A: 18.4 g

Q: What about the “TV (mean ± SD) d 28” value ([4]; 15 mg/kg, iv q3w × 3w, SKOV-3) of the same compound?
A: 924 ± 443 mm^3

Q: And the “number of animals with tumor regression” value ([4]; 15 mg/kg, iv q3w × 3w, SKOV-3)?
A: 0

Q: And the “Weight At the beginning” value ([4]; 15 mg/kg, iv q3w × 3w)?
A: 18.9 g

Q: And the “Weight At lats” value ([4]; 15 mg/kg, iv q3w × 3w)?
A: 18.0 g

Q: What about the “TV (mean ± SD) d 28” value ([4]; 45 mg/kg, iv qw × 3w, SKOV-3) of the same compound?
A: 1753 ± 878 mm^3

Q: What about the “number of animals with tumor regression” value ([4]; 45 mg/kg, iv qw × 3w, SKOV-3) of the same compound?
A: 0

Q: What about the “Weight At the beginning” value ([4]; 45 mg/kg, iv qw × 3w) of the same compound?
A: 19.7 g

Q: And the “Weight At lats” value ([4]; 45 mg/kg, iv qw × 3w)?
A: 18.4 g

Q: What about the “body weight change during the whole experiment (in words)” value ([4]; CPT-11 both dose groups, CPT-1 45 mg/kg, SKOV-3) of the same compound?
A: slight weight loss

Q: What about the “RTV mean ± SD)” value ([5]; 15 mg/kg, iv q3w × 3w) of the same compound?
A: 0.02 ± 0.02**^,

Q: And the “TV (mean ± SD) d 28” value ([5]; 15 mg/kg, iv q3w × 3w)?
A: 2.09 ± 1.51 mm^3

Q: What about the “number of animals with tumor regression” value ([5]; 15 mg/kg, iv q3w × 3w) of the same compound?
A: 0

Q: What about the “Weight At the beginning” value ([5]; 15 mg/kg, iv q3w × 3w) of the same compound?
A: 19.7 g

Q: And the “Weight At last” value ([5]; 15 mg/kg, iv q3w × 3w)?
A: 24.2 g

Q: What about the “RTV mean ± SD)” value ([5]; 45 mg/kg, iv qw × 3w) of the same compound?
A: 6.60 ± 1.56

Q: And the “TV (mean ± SD) d 28” value ([5]; 45 mg/kg, iv qw × 3w)?
A: 877 ± 324 mm^3

Q: What about the “number of animals with tumor regression” value ([5]; 45 mg/kg, iv qw × 3w) of the same compound?
A: 0

Q: And the “Weight At the beginning” value ([5]; 45 mg/kg, iv qw × 3w)?
A: 18.8 g

Q: And the “Weight At last” value ([5]; 45 mg/kg, iv qw × 3w)?
A: 21.8 g
